# According to patent US20060008855A1, “Promiscuous G-protein compositions and their use” (Invitrogen Corporation, a Delaware corporation, priority 1996, published 2006):
# “And” between values parts separate entries of the source, which are not always exact repeats. Identical values can stand only once.
# How the values were obtained:
# [1] = test system: NFAT promoter; assay: NFAT promoter β-lactamase reporter gene assay in Jurkat T lymphocytes; type: cell-based
# Description: These examples employ Jurkat T lymphocytes that were transfected with a genetic construct that expresses a reporter gene. The genetic construct includes a NFAT promoter, which is responsive to increased calcium levels and protein kinase C activation that result from activation of Gα protein. The NFAT promoter was operably linked to a β-lactamase reporter gene. To detect expression of the reporter gene, and thereby detect activation of Gα, the cells were contacted with the β-lactamase substrate CCF2ac2/AM2 (described herein), and fluorescence emission was detected according to previously described methods (Tsien et al., 1993, Trends in Cell Biology 3:242-245).
# Two different compounds, ionomycin and phorbol myristate acetate (PMA), were used to optimize detection of expression of the reporter gene in these examples. In the first example, the dose response to ionomycin was measured. In this example, a set of samples of cells were contacted with PMA (at 3 nM) and the calcium ionophore ionomycin (at various concentrations, ranging from 0 to 3.0 μM). […]
# In practicing these methods, it is preferable to add the ionophore to a level that is just below the threshold level for activation of the calcium-responsive promoter (e.g., the NFAT promoter). […] As is illustrated in FIG. 4A, fluorescence emission from a sample of the aforementioned cells can be measured by FRET. In this example, fluorescence emission was measured approximately 90 minutes after stimulation. Because the fluorogenic β-lactamase substrate undergoes a shift in fluorescence emission, fluorescence emission is measured as an emission ratio (450/530) when exciting at 400 nm. […]
# In a second example, the dose response of PMA required to stimulate NFAT-driven expression was measured. […] As above, fluorescence emission was measured 90 minutes after stimulation. […]
# [2] = biological target: T1, RTEM β-lactamase (Escherichia coli, UniProt P62593); assay: Pixel intensities of CCF2 loaded CHO cells transiently transfected with RTEM β-lactamase gene; type: cell-based; parameters: expressed in transfected cells; host or cells: CHO, transiently transfected; conditions: for pixel intensity, coumarin emission filter: 450 DF 65 filter
# Description: (§1) Cells from cell lines of various mammalian origin were transiently transfected with a plasmid containing the RTEM β-lactamase gene under the control of a mammalian promoter. […] D. 1.10 to 48 hours after transfection cells were exposed to 5 micromolar CCF2/ac2AM2 for 1 to 6 hours. […] To quantitate the fluorescence measurements the cells were first viewed through coumarin (450 DF 65) and then fluorescein (515 EFLP) emission filters and pictures were recorded with a charge couple device camera. The average pixel intensities of CCF2 loaded transfected cells (blue) and controls (green) at coumarin and fluorescein wavelength in COS-7 (Table 2) and CHO (Table 3) cells are summarized; values for 4 representative cells for each population are given.
# [3] = biological target: T1, RTEM β-lactamase; assay: Pixel intensities of CCF2 loaded COS-7 cells transiently transfected with RTEM β-lactamase gene; type: cell-based; parameters: expressed in transfected cells; host or cells: COS-7, transiently transfected; conditions: for pixel intensity, coumarin emission filter: 450 DF 65 filter
# Description: as §1
# [4] = test system: β-lactamase; assay: β-lactamase cleavage of CCF2 in phosphate buffer, emission spectrum; type: biochemical; conditions: 50 mmolar phosphate buffer pH 7.0, excitation 405 nm
# Description: The emission spectrum of compound CCF2 in 50 mmolar phosphate buffer pH 7.0 before and after β-lactamase cleavage of the β-lactam ring. In the intact substrate, efficient energy transfer occurs from the 7-hydroxycoumarin moiety to the fluorescein moiety. Excitation of the substrate at 405 nm results in fluorescence emission at 515 nm (green) from the acceptor dye fluorescein. The energy transfer is disrupted when β-lactamase cleaves the β-lactam ring, thereby severing the link between the two dyes. Excitation of the products at 405 nm now results entirely in donor fluorescence emission at 448 nm (blue). The fluorescence emission from the donor moiety increases 25 fold upon β-lactam cleavage. The fluorescence at 515 nm is reduced by 3.5-fold, all of the remaining fluorescence originating from the 7-hydroxycoumarin as its emission spectrum extends into the green. Twenty-five-fold quenching of the donor in the substrate is equivalent to an efficiency of fluorescence energy transfer of 96%. This large fluorescence change upon β-lactam cleavage can readily be used to detect β-lactamase in the cytoplasm of living mammalian cells.
# [5] = test system: Gα15 or Gα16 expression; assay: Doxycyclin-inducible expression of Gα15 or Gα16 in COS-7 cells, Western blot; type: cell-based; conditions: COS-7 clones, tet operator/CMV promoter; doxycyclin 3 g/ml
# Description: The data summarized herein indicate that, although cells may not tolerate constitutive expression of promiscuous Gα proteins at high levels, they can tolerate expression of promiscuous Gα proteins from an inducible promoter. In this case, the genes for Gα15 and Gα16 were placed under the control of a cytomegalovirus (CMV) promoter that was operably linked to a heptamerized tet operator (Gossen and Bujard, 1992, Proc. Natl. Acad. Sci. 89:5547-5551). The plasmid encoding Gα and; the plasmid encoding Gα16 are identical, except sequences encoding Gα16 in lieu of Gα15. These plasmids were used to transfect COS-7 cells. These cells were co-transfected with a tetracyclin-dependent transactivator, rtTA, that is operably linked to a CMV promoter of a plasmid that carries a neomycin resistance gene (Gossen et al., 1995, Science 268:1766-1769).
# Expression of the Gα genes was induced by contacting the cells with doxycyclin, a tetracyclin analog. In these experiments, the doxycyclin concentration was […], although doxycyclin concentrations ranging from […] can be used in order to regulate the level of gene expression. […] FIG. 3 illustrates that, in the presence of doxycyclin, expression of Gα15 or Gα16 is detectable as a band of approximately 43 kDa. […]
# T1 sequence (P62593 24-286 limits assumed): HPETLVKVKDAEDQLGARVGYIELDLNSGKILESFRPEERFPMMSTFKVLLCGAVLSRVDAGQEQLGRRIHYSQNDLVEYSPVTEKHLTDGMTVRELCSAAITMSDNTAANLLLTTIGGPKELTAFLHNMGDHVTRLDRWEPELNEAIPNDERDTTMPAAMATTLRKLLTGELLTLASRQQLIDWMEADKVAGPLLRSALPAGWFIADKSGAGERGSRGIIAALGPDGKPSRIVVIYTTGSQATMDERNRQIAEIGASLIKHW
structure (smiles),measurement,setting,value
"CCCCCCCCCCCCCC(=O)O[C@@H]1[C@@H](C)[C@@]2(O)[C@@H](C=C(CO)C[C@]3(O)C(=O)C(C)=C[C@@H]23)[C@@H]2C(C)(C)[C@]12OC(C)=O [PMA, phorbol myristate acetate]",effect on fluorescence emission from the cell sample,"[1]; 0 to 30 nM with 1 μM ionomycin, 90 minutes after stimulation",increased fluorescence emission
same,concentration preferable for enhancing detection of expression of a reporter gene,"[1]; with 1 μM ionomycin, 90 minutes after stimulation",approximately 3 nM
O=C(CNC(=O)c1cc2cc(Cl)c(O)cc2oc1=O)N[C@@H]1C(=O)N2C(C(=O)O)=C(CSc3ccc4c(c3)C(=O)OC43c4ccc(O)cc4Oc4cc(O)ccc43)CS[C@H]12 [CCF2],"pixel intensity, coumarin emission filter",[2]; blue cell (transfected),98 and 70 and 76 and 56
same,"pixel intensity, Fluorescein emission filter","[2]; blue cell (transfected), 515 EFLP filter",112 and 113 and 92 and 67
same,"pixel intensity, coumarin emission filter",[2]; green cell (control),9 and 7
same,"pixel intensity, coumarin emission filter","[3]; COS-7, blue cell (transfected)",22 and 27 and 34 and 31
same,"pixel intensity, Fluorescein emission filter","[3]; COS-7, blue cell (transfected), 515 EFLP filter",33 and 20 and 23 and 31
same,"pixel intensity, coumarin emission filter","[3]; COS-7, green cell (control)",4 and 5 and 3
same,reduction of fluorescence at 515 nm upon β-lactam cleavage,[4],3.5 fold
same,increase of fluorescence emission from the donor moiety upon β-lactam cleavage,[4]; emission 448 nm,25 fold
C[C@H](CCC(=O)O)C[C@H](C)C[C@H](C)C(=O)/C=C(\O)[C@H](C)C[C@H](C)C/C=C/[C@@H](C)[C@@H](O)[C@@H](C)[C@@H](O)C[C@@H]1CC[C@@](C)([C@H]2CC[C@@](C)([C@@H](C)O)O2)O1 [ionomycin],concentration raising intracellular calcium to just below the threshold level for activation of the calcium-responsive promoter,"[1]; with PMA at 3 nM, emission ratio 450/530, about 90 minutes after stimulation",approximately 0.3 μM
C[C@H]1c2cccc(O)c2C(O)=C2C(=O)[C@]3(O)C(O)=C(C(N)=O)C(=O)[C@@H](N(C)C)[C@@H]3[C@@H](O)[C@@H]21 [doxycyclin],Gα proteins produced upon induction of gene expression,[5],"Up to 10,000 Gα proteins/cell"
